For the data set, the target named is GAL4 DBD (1-147)-CfEcR(DEF)/VP16AD-βRXREF-LmUSPEF (Choristoneura fumiferana, UniProt O77240). The data set is described as follows: cell-based. The settings on record: for Fold Induction, 27-63 Assay, 3.3 uM: 3.3 uM ligand; for Fold Induction, 27-63 Assay, 3.3 uM / Fold Induction, 27-63 Assay, 33 uM: RLU ligand treated / RLU DMSO treated cells; for Fold Induction, 27-63 Assay, 3.3 uM / Fold Induction, 27-63 Assay, 33 uM / EC50: average of two wells; for Fold Induction, 27-63 Assay, 33 uM: 33 uM ligand; for 27-63 assay Rel Max FI: maximum fold induction at any concentration relative to that of GS-E ligand, CHO 27-63 cells; for EC50: read-out: 27-63 assay EC50, CHO 27-63 stable cell line, luciferase reporter. A general note: Reporter assays use an easily measured gene product as a stand-in for the process of interest.

Structures are written as SMILES.

Usually EC50 stands for the concentration giving half of the maximal effect.

On to `COc1cccc(C(=O)NN(C(=O)c2cccnc2Cl)C(C)(C)C)c1C` [RG-100127], for which the “Fold Induction, 27-63 Assay, 3.3 uM” value is 49; the “Fold Induction, 27-63 Assay, 33 uM” value amounted to 1239; the “27-63 assay Rel Max FI” value was determined as 0.689; the EC50 was determined as 6700 nM.
The corresponding values for `COc1ccccc1C(=O)N(NC(=O)c1ccc2c(c1C)OCOC2)C(C)(C)C` [RG-100216] are 53, 1312, 0.685 and 6970 nM.
As for `COc1cc(C(=O)N(NC(=O)c2cccc(OC)c2C)C(C)(C)C)ccc1C` [RG-100768], the “Fold Induction, 27-63 Assay, 3.3 uM” value amounted to 1738; the “Fold Induction, 27-63 Assay, 33 uM” value was determined as 1852; the “27-63 assay Rel Max FI” value was found to be 1.039; the EC50 was found to be 333 nM.
On to `COc1cc(C)ccc1C(=O)N(NC(=O)c1cccc(OC)c1C)C(C)(C)C` [RG-100769], for which the “Fold Induction, 27-63 Assay, 3.3 uM” value was 1595; the “Fold Induction, 27-63 Assay, 33 uM” value was 1556; the “27-63 assay Rel Max FI” value turned out to be 0.735; the EC50 turned out to be 196 nM.
On to `CCc1c(OC)cccc1C(=O)NN(C(=O)c1cc(OC)cc(OC)c1)C(C)(C)C` [RG-100778], for which the “Fold Induction, 27-63 Assay, 3.3 uM” value is listed as 2159; the “Fold Induction, 27-63 Assay, 33 uM” value is reported as 2312; the “27-63 assay Rel Max FI” value came to 1.342; the EC50 came to 678 nM.
On to `CC(C)(C)N(NC(=O)c1c(F)cccc1F)C(=O)c1cc(Cl)cc(Cl)c1` [RG-100801], for which the “Fold Induction, 27-63 Assay, 3.3 uM” value is on record as 1341; the “Fold Induction, 27-63 Assay, 33 uM” value came out at 1244; the “27-63 assay Rel Max FI” value is reported as 0.936; the half-maximal effective concentration (EC50) came out at 2080 nM.
In the case of `CC(=O)c1cccc(C(=O)NN(C(=O)c2cc(C)cc(C)c2)C(C)(C)C)c1C` [RG-100814], the “Fold Induction, 27-63 Assay, 3.3 uM” value is 2441; the “Fold Induction, 27-63 Assay, 33 uM” value was 2165; the “27-63 assay Rel Max FI” value came out at 1.157; the EC50 was found to be 1500 nM.
For `COc1cc(Cl)ccc1C(=O)N(NC(=O)c1cccc(OC)c1C)C(C)(C)C` [RG-100848], the “Fold Induction, 27-63 Assay, 3.3 uM” value was 1181; the “Fold Induction, 27-63 Assay, 33 uM” value turned out to be 1151; the “27-63 assay Rel Max FI” value is reported as 0.765; the EC50 worked out at 322 nM.
`Cc1cc(C)cc(C(=O)N(NC(=O)c2ccc(CC#N)cc2)C(C)(C)C)c1` [RG-100875]: the “Fold Induction, 27-63 Assay, 3.3 uM” value is given as 34; the “Fold Induction, 27-63 Assay, 33 uM” value is reported as 1592; the “27-63 assay Rel Max FI” value stood at 1.004; the EC50 was 8920 nM.
On to `COc1cccc(C(=O)NN(C(=O)c2ccc(Cl)cc2F)C(C)(C)C)c1C` [RG-100929], for which the “Fold Induction, 27-63 Assay, 3.3 uM” value is 1080; the “Fold Induction, 27-63 Assay, 33 uM” value came to 988; the “27-63 assay Rel Max FI” value stood at 0.770; the EC50 came to 1050 nM.
Take `CCc1ccc(C(=O)NN(C(=O)c2ccccc2[N+](=O)[O-])C(C)(C)C)cc1` [RG-101013]: the “Fold Induction, 27-63 Assay, 3.3 uM” value is on record as 927; the “Fold Induction, 27-63 Assay, 33 uM” value amounted to 988; the “27-63 assay Rel Max FI” value is on record as 0.606; the EC50 was found to be 2140 nM.
With `Cc1cc(C)cc(C(=O)N(NC(=O)c2ccc3c(c2)COCO3)C(C)(C)C)c1` [RG-101016], the “Fold Induction, 27-63 Assay, 3.3 uM” value is 308; the “Fold Induction, 27-63 Assay, 33 uM” value is recorded as 1347; the “27-63 assay Rel Max FI” value amounted to 0.703; the EC50 was 4200 nM.
On to `CCc1c(C(=O)NN(C(=O)c2cccc(C)c2)C(C)(C)C)ccc2c1OCCO2` [RG-101036], for which the “Fold Induction, 27-63 Assay, 3.3 uM” value stood at 1721; the “Fold Induction, 27-63 Assay, 33 uM” value was 1459; the “27-63 assay Rel Max FI” value is reported as 0.724; the EC50 stood at 177 nM.
Regarding `CC(C)(C)N(NC(=O)c1ccc2c(c1)OCO2)C(=O)c1ccc(F)cc1Cl` [RG-101048], the “Fold Induction, 27-63 Assay, 3.3 uM” value is 19; the “Fold Induction, 27-63 Assay, 33 uM” value is reported as 1453; the “27-63 assay Rel Max FI” value came to 0.708; the EC50 was found to be 8420 nM.
As for `COc1ccc(C(=O)NN(C(=O)c2ccc(F)cc2Cl)C(C)(C)C)cc1` [RG-101057], the “Fold Induction, 27-63 Assay, 3.3 uM” value is listed as 30; the “Fold Induction, 27-63 Assay, 33 uM” value was 1008; the “27-63 assay Rel Max FI” value was 0.648; the EC50 turned out to be 6620 nM.
For `Cc1cc(C)cc(C(=O)N(NC(=O)c2cc3c(cc2C)OCO3)C(C)(C)C)c1` [RG-101088], the “Fold Induction, 27-63 Assay, 3.3 uM” value worked out at 6; the “Fold Induction, 27-63 Assay, 33 uM” value is 1743; the “27-63 assay Rel Max FI” value was 1.159; the EC50 is 9950 nM.
Regarding `Cc1cc(C)cc(C(=O)N(NC(=O)c2cc3c(cc2Cl)OCO3)C(C)(C)C)c1` [RG-101171], the “Fold Induction, 27-63 Assay, 3.3 uM” value is listed as 395; the “Fold Induction, 27-63 Assay, 33 uM” value is on record as 1357; the “27-63 assay Rel Max FI” value is 0.877; the EC50 came to 4020 nM.
As for `CCc1c(OC)cccc1C(=O)NN(C(=O)c1ccc(Cl)cc1OC)C(C)(C)C` [RG-101218], the “Fold Induction, 27-63 Assay, 3.3 uM” value worked out at 1097; the “Fold Induction, 27-63 Assay, 33 uM” value was 1223; the “27-63 assay Rel Max FI” value is on record as 0.645; the EC50 is 128 nM.
Consider `COc1cccc(C(=O)NN(C(=O)c2cc(C)ccc2Cl)C(C)(C)C)c1Cl` [RG-101248], for which the “Fold Induction, 27-63 Assay, 3.3 uM” value was 146; the “Fold Induction, 27-63 Assay, 33 uM” value is on record as 1033; the “27-63 assay Rel Max FI” value was 0.790; the concentration for a half-maximal effect (EC50) amounted to 5040 nM.
Regarding `Cc1cc(C)cc(C(=O)N(NC(=O)c2ccc3c(c2Br)OCCO3)C(C)(C)C)c1` [RG-101340], the “Fold Induction, 27-63 Assay, 3.3 uM” value stood at 1624; the “Fold Induction, 27-63 Assay, 33 uM” value came out at 1549; the “27-63 assay Rel Max FI” value is 0.964; the EC50 is 240 nM.
In the case of `COc1cccc(C(=O)NN(C(=O)c2cc(C)cc(Br)c2)C(C)(C)C)c1C` [RG-101353], the “Fold Induction, 27-63 Assay, 3.3 uM” value came to 3583; the “Fold Induction, 27-63 Assay, 33 uM” value stood at 3835; the “27-63 assay Rel Max FI” value stood at 1.168; the EC50 worked out at 266 nM.
Regarding `COc1cccc(C(=O)NN(C(=O)c2cc(Cl)cc(Br)c2)C(C)(C)C)c1C` [RG-101408], the “Fold Induction, 27-63 Assay, 3.3 uM” value amounted to 2445; the “Fold Induction, 27-63 Assay, 33 uM” value is 1886; the “27-63 assay Rel Max FI” value is recorded as 1.185; the EC50 amounted to 336 nM.
For the molecule `Cc1cc(C)cc(C(=O)N(NC(=O)c2ccc3c(c2)OC(C)O3)C(C)(C)C)c1` (stereo not shown) [RG-101511], the “Fold Induction, 27-63 Assay, 3.3 uM” value turned out to be 1421; the “Fold Induction, 27-63 Assay, 33 uM” value is on record as 1207; the “27-63 assay Rel Max FI” value stood at 0.762; the EC50 is 714 nM.
As for `COc1cc(C(=O)NN(C(=O)c2cc(C)cc(C)c2)C(C)(C)C)ccc1C` [RG-101585], the “Fold Induction, 27-63 Assay, 3.3 uM” value came to 154; the “Fold Induction, 27-63 Assay, 33 uM” value is recorded as 1495; the “27-63 assay Rel Max FI” value is given as 0.893; the EC50 was 5060 nM.
On to `CCc1c(C(=O)NN(C(=O)c2cc(C)cc(C)c2)C(C)(C)C)ccc2c1OC(C)O2` (stereo not shown) [RG-101659], for which the “Fold Induction, 27-63 Assay, 3.3 uM” value was 2283; the “Fold Induction, 27-63 Assay, 33 uM” value was determined as 1896; the “27-63 assay Rel Max FI” value was found to be 1.009; the EC50 was 347 nM.
Consider `CCc1cccc(C(=O)NN(C(=O)c2cc(C)cc(C)c2)C(C)(C)C)c1C` [RG-101691], for which the “Fold Induction, 27-63 Assay, 3.3 uM” value stood at 2249; the “Fold Induction, 27-63 Assay, 33 uM” value was found to be 2073; the “27-63 assay Rel Max FI” value came to 0.969; the EC50 came to 250 nM.
As to `Cc1cc(C)cc(C(=O)N(NC(=O)c2cccc(OC(F)(F)F)c2C)C(C)(C)C)c1` [RG-101692], the “Fold Induction, 27-63 Assay, 3.3 uM” value is listed as 1798; the “Fold Induction, 27-63 Assay, 33 uM” value was 591; the “27-63 assay Rel Max FI” value was 1.008; the EC50 was 788 nM.
Turning to `CCc1ccc(C(=O)NN(C(=O)c2cc(C)cc(Cl)c2)C(C)(C)C)cc1` [RG-101774], the “Fold Induction, 27-63 Assay, 3.3 uM” value was found to be 1807; the “Fold Induction, 27-63 Assay, 33 uM” value was 1359; the “27-63 assay Rel Max FI” value came to 0.795; the EC50 was 359 nM.
Consider `CCc1ccc(C(=O)NN(C(=O)c2cc(C)c(C)c(Cl)c2)C(C)(C)C)cc1` [RG-101863], for which the “Fold Induction, 27-63 Assay, 3.3 uM” value came out at 1705; the “Fold Induction, 27-63 Assay, 33 uM” value worked out at 636; the “27-63 assay Rel Max FI” value came out at 1.043; the EC50 is 1000 nM.
As to `CCc1ccc(C(=O)NN(C(=O)c2cc(C)cc(C)c2)C(C)(C)C)cc1Cl` [RG-101864], the “Fold Induction, 27-63 Assay, 3.3 uM” value was 1807; the “Fold Induction, 27-63 Assay, 33 uM” value is recorded as 1464; the “27-63 assay Rel Max FI” value is on record as 0.750; the EC50 amounted to 343 nM.
The corresponding values for `Cc1cc(C)cc(C(=O)N(NC(=O)c2ccc3c(c2)CCCC3)C(C)(C)C)c1` [RG-101887] are 1142, 1107, 0.675 and 351 nM.
With `C=Cc1c(OC)cccc1C(=O)NN(C(=O)c1cc(C)cc(C)c1)C(C)(C)C` [RG-102021], the “Fold Induction, 27-63 Assay, 33 uM” value is given as 2951.
Turning to `CCc1ccc(C(=O)NN(C(=O)c2ccccc2CC)C(C)(C)C)cc1` [RG-102592], the “Fold Induction, 27-63 Assay, 3.3 uM” value is recorded as 7; the “Fold Induction, 27-63 Assay, 33 uM” value is 1265; the “27-63 assay Rel Max FI” value was determined as 0.798; the EC50 came out at 7770 nM.
As to `COCc1c(OC)cccc1C(=O)NN(C(=O)c1cc(C)cc(C)c1)C(C)(C)C` [RG-115117], the “Fold Induction, 27-63 Assay, 33 uM” value turned out to be 221.

Values taken from patent publication US9102648B1, “Bioavailable diacylhydrazine ligands for modulating the expression of exogenous genes via an ecdysone receptor complex” (Intrexon Corporation, priority 2003, dated 2015).
